System: muscle and mitochondrial gene sets in vastus lateralis
Assay: Microarray analysis / Gene Set Enrichment Analysis of skeletal muscle biopsies
Type: in vivo, human
Method: Muscle biopsies were collected on Day −1 and Day 28 at pre-dose under fasted state using the Bergström biopsy needle technique. The minimal amount of each muscle tissue sample was approximately 50 mg. One third of the tissue was used for gene expression (≈50 mg), and was further divided into two equal portions: one portion for RNA analysis (≈25 mg) and one portion for DNA analysis (≈25 mg), both in a Safe-lock Tubes 2.0 ml, Eppendorf (part no. 0030.120.094). Muscle tissue was snap frozen using liquid nitrogen immediately after collection and further, long term storage will be in a −80° C. freezer. The mRNA was analysed by microarray. Quantification of mtDNA over nuclear DNA provided another measure of mitochondrial abundance. The shipment was done in dry ice by specialized carrier. Temperatures were monitored using data logger during all transport. Gene expression on available remaining muscle tissues samples was performed by microarrays. […] Microarray analysis was carried out on skeletal muscle biopsies of human subjects administered urolithin A or placebo daily for 28 days. Approximately 30,000 gene transcripts were quantified by microarray in muscle biopsies and compared (day 28 vs. day −1). Gene Set Enrichment Analysis was conducted on 6166 gene sets. […]

For `O=c1oc2cc(O)ccc2c2ccc(O)cc12` [Urolithin A], the “enrichment in GO_MITOCHONDRION genes expression” value (1000 mg urolithin A group vs placebo group, 28 day treatment) was “significant” and the “mitochondrial and muscle gene sets expression (normalized enrichment score)” value (1000 mg/day for 28 days, day 28 vs day −1, compared with placebo, FDR<0.25) was “significantly upregulated”.

Source: US11969408B2, “Method for improving mitophagy in subjects” (Amazentis SA, priority 2017, dated 2024)
